In PubChem BioAssay AID256 (DTP/NCI, 2004):
Several values for one entry are separate records, joined by “and”; a condition that tells them apart may be missing. Identical values can stand only once. Inconclusive results and toxic doses are left out. Rule for the calls: active = survival T/C of 150% or more; inactive = T/C below 125% in these data.

System: CD2F1 mice, L1210 leukemia ip, survival T/C
Test: NCI In Vivo Anticancer Drug Screen. Data for tumor model L1210 Leukemia (intraperitoneal) in CD2F1 (CDF1) mice
Conditions: higher = longer survival
Summary of the method: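 Transplantable tumor in mice; compound-treated vs vehicle-treated groups. Read-out = treated/control ratio of the measured endpoint.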

[1] = endpoint: mean survival time, dose: 50.0 mg/kg/injection, schedule: Q01DX009 (ip), vehicle: saline with Tween-80
[2] = endpoint: mean survival time, dose: 100.0 mg/kg/injection, schedule: Q01DX009 (ip), vehicle: saline with Tween-80
[3] = endpoint: mean survival time, dose: 100.0 mg/kg/injection, schedule: Q01DX001 (ip), vehicle: saline with Tween-80

Measured: T/C

CCN(CC)CC(C)(C)CO
inactive: [1] 104 % of control | [2] 95 % of control | endpoint: mean survival time, dose: 100.0 mg/kg/injection, schedule: Q04DX003 (ip), vehicle: saline with Tween-80 92 % of control | endpoint: mean survival time, dose: 200.0 mg/kg/injection, schedule: Q01DX009 (ip), vehicle: saline with Tween-80 98 % of control | endpoint: mean survival time, dose: 200.0 mg/kg/injection, schedule: Q04DX003 (ip), vehicle: saline with Tween-80 97 % of control

N#Cc1ncc(-c2ccccc2)nc1C#N
inactive: [3] 91 % of control | endpoint: mean survival time, dose: 200.0 mg/kg/injection, schedule: Q01DX001 (ip), vehicle: saline with Tween-80 92 % of control | endpoint: mean survival time, dose: 400.0 mg/kg/injection, schedule: Q01DX001 (ip), vehicle: saline with Tween-80 105 % of control

CC(=O)OCc1cc(=O)n(C)c2c3c4c(cc12)c(C)cc(=O)n4CO3
inactive: endpoint: mean survival time, dose: 6.25 mg/kg/injection, schedule: Q01DX009 (ip), vehicle: Klucel (hydroxypropylcellulose) (HPC) 100 % of control | endpoint: mean survival time, dose: 12.5 mg/kg/injection, schedule: Q01DX009 (ip), vehicle: Klucel (hydroxypropylcellulose) (HPC) 104 % of control and 112 % of control | endpoint: mean survival time, dose: 25.0 mg/kg/injection, schedule: Q01DX009 (ip), vehicle: Klucel (hydroxypropylcellulose) (HPC) 112 % of control and 114 % of control and 109 % of control | endpoint: mean survival time, dose: 50.0 mg/kg/injection, schedule: Q01DX009 (ip), vehicle: Klucel (hydroxypropylcellulose) (HPC) 119 % of control | endpoint: mean survival time, dose: 100.0 mg/kg/injection, schedule: Q01DX009 (ip), vehicle: Klucel (hydroxypropylcellulose) (HPC) 90 % of control

CN1CCN(c2ccc([N+](=O)[O-])c3no[n+]([O-])c23)CC1
inactive: endpoint: mean survival time, dose: 2.5 mg/kg/injection, schedule: Q01DX009 (ip), vehicle: saline with Tween-80 105 % of control and 112 % of control | endpoint: mean survival time, dose: 5.0 mg/kg/injection, schedule: Q01DX009 (ip), vehicle: saline with Tween-80 114 % of control and 108 % of control | endpoint: mean survival time, dose: 5.0 mg/kg/injection, schedule: Q01DX009 (ip), vehicle: saline 123 % of control | endpoint: mean survival time, dose: 10.0 mg/kg/injection, schedule: Q01DX009 (ip), vehicle: saline with Tween-80 116 % of control and 110 % of control | endpoint: mean survival time, dose: 20.0 mg/kg/injection, schedule: Q01DX009 (ip), vehicle: saline with Tween-80 117 % of control and 119 % of control | endpoint: mean survival time, dose: 40.0 mg/kg/injection, schedule: Q01DX009 (ip), vehicle: saline with Tween-80 122 % of control and 103 % of control | endpoint: mean survival time, dose: 80.0 mg/kg/injection, schedule: Q01DX009 (ip), vehicle: saline with Tween-80 121 % of control

Cc1n[nH]n(Cc2ccccc2)c1=O
inactive: endpoint: mean survival time, dose: 25.0 mg/kg/injection, schedule: Q01DX005 (ip), vehicle: saline with Tween-80 97 % of control | endpoint: mean survival time, dose: 50.0 mg/kg/injection, schedule: Q01DX005 (ip), vehicle: saline with Tween-80 99 % of control | endpoint: mean survival time, dose: 100.0 mg/kg/injection, schedule: Q01DX005 (ip), vehicle: saline with Tween-80 97 % of control | endpoint: mean survival time, dose: 200.0 mg/kg/injection, schedule: Q01DX005 (ip), vehicle: saline with Tween-80 99 % of control | endpoint: mean survival time, dose: 400.0 mg/kg/injection, schedule: Q01DX005 (ip), vehicle: saline with Tween-80 97 % of control

O=c1[nH]cnc2c1ncn2C1CC(CO)C(O)OC1O (stereo not given)
active: endpoint: mean survival time, dose: 100.0 mg/kg/injection, schedule: Q04DX002 (ip), vehicle: saline 164 % of control | endpoint: mean survival time, dose: 200.0 mg/kg/injection, schedule: Q04DX002 (ip), vehicle: saline 188 % of control

COc1ccc(CC2=NCCN2)cc1
inactive: endpoint: mean survival time, dose: 25.0 mg/kg/injection, schedule: Q01DX009 (ip), vehicle: saline with Tween-80 98 % of control | [1] 98 % of control | [2] 98 % of control

O=C1CC2(C(=O)N1CN1CCOCC1)c1ccccc1-c1ccccc12
inactive: endpoint: median survival time, dose: 25.0 mg/kg/injection, schedule: Q01DX009 (ip), vehicle: Klucel (hydroxypropylcellulose) (HPC) 103 % of control | endpoint: median survival time, dose: 50.0 mg/kg/injection, schedule: Q01DX009 (ip), vehicle: Klucel (hydroxypropylcellulose) (HPC) 102 % of control | endpoint: median survival time, dose: 100.0 mg/kg/injection, schedule: Q01DX009 (ip), vehicle: Klucel (hydroxypropylcellulose) (HPC) 96 % of control | endpoint: median survival time, dose: 200.0 mg/kg/injection, schedule: Q01DX009 (ip), vehicle: Klucel (hydroxypropylcellulose) (HPC) 100 % of control | endpoint: median survival time, dose: 400.0 mg/kg/injection, schedule: Q01DX009 (ip), vehicle: Klucel (hydroxypropylcellulose) (HPC) 107 % of control

O/N=C1\CN2CCC1CC2
inactive: [3] 91 % of control

O=[N+]([O-])c1cccnc1SSc1ncccc1[N+](=O)[O-]
inactive: endpoint: mean survival time, dose: 100.0 mg/kg/injection, schedule: Q01DX001 (ip), vehicle: saline 90 % of control | endpoint: mean survival time, dose: 100.0 mg/kg/injection, schedule: Q04DX003 (ip), vehicle: saline 92 % of control | endpoint: mean survival time, dose: 200.0 mg/kg/injection, schedule: Q01DX001 (ip), vehicle: saline 90 % of control | endpoint: mean survival time, dose: 200.0 mg/kg/injection, schedule: Q04DX003 (ip), vehicle: saline 102 % of control | endpoint: mean survival time, dose: 400.0 mg/kg/injection, schedule: Q01DX001 (ip), vehicle: saline 90 % of control | endpoint: mean survival time, dose: 400.0 mg/kg/injection, schedule: Q04DX003 (ip), vehicle: saline 92 % of control

O=c1c2ccccc2[nH]c(=S)n1C1CCCC1
inactive: endpoint: mean survival time, dose: 100.0 mg/kg/injection, schedule: Q04DX002 (ip), vehicle: saline with Tween-80 96 % of control | endpoint: mean survival time, dose: 200.0 mg/kg/injection, schedule: Q04DX002 (ip), vehicle: saline with Tween-80 108 % of control | endpoint: mean survival time, dose: 400.0 mg/kg/injection, schedule: Q04DX002 (ip), vehicle: saline with Tween-80 100 % of control
